Measured values published in patent US20130059818A1, “CARBOSILANE DENDRIMERS AND THE USE THEREOF AS ANTIVIRAL AGENTS” (UNIVERSIDAD DE ALCALA DE HENARES (UAH), priority 2010, published 2013).
“Also recorded” adds a separate entry of the source.

Tests used:
[1] = system: HEC-1A (human endometrial epithelial cells); test: MTT assay in HEC-1A; format: cell-based; settings: up to 10 μM, FIG. 13A
Method: (§1) This method was selected to analyze detrimental intracellular effects on mitochondria and metabolic activity. The colorimetric MTT test, based on the selective ability of viable cells to reduce MTT to purple formazan, relies on intact metabolic activity and is frequently used for cytotoxicity screening. […] The concentration of formazan was then determined spectrophotometrically in a plate reader at a wavelength of 570 nm (test) and 690 nm (reference). The spectrophotometer was calibrated to zero absorbance by using Optimem medium without cells. The percentage cell viability relative to control wells (cells with no dendrimer) was calculated by ([A]test/[A]control)T100. […]

[2] = system: HEC-1A (human endometrial epithelial cells); test: LDH assay in HEC-1A; format: cell-based
Excerpt: This technique (CytoTox 96® Non-Radioactive Cytotoxicity Assay) was used to test the damage in the cell membrane surface due to the presence of anionic peripheral groups of dendrimers. The lactate dehydrogenase (LDH) is an enzyme that is released into the cytoplasm due to cell lysis. The LDH assay, therefore, is a measure of membrane integrity, which is based on the oxidation of LDH to pyruvate and reduction of tetrazolium salts to formazan crystals by pyruvate.
1*10^5 cells/well were dispensed in 96-well plate round bottom in a volume of 100 μL of complete medium and the dendrimer was added in a volume of 100 μL, to obtain a final volume of 200 μL in the well. Controls: 1. 200 μL of complete medium without cells (background control), 2. 100 μL of cells+100 μL of complete medium, 3. 100 μL of cells+100 μL of Triton X-100 0.2% 4. 100 μL of cells+100 μL with the dendrimer to the desired concentration. Incubated in culture conditions during the first 24 h. Plate was centrifuged at 1500 rpm 10 minutes and removed 100 μL of supernatant, being careful not to take the cells. 100 μL of reaction mixture prepared at the time on the 100 μL was added of supernatant and incubated at room temperature for 30 minutes in darkness. Finally, measured at 490 nm and 690 nm reference. The cytotoxicity was obtained from the following formula: Cytotoxicity (%)=(4−2)/(3−2)*100 […]

[3] = system: HIV (X4 and R5-tropic virus); test: Inhibition of transcytosis through HEC-1A monolayer (transwell); format: cell-based
Method: To obtain a perfect monolayer of polarized epithelial cells, the HEC-1A were grown in complete medium on a permeable polycarbonate support of 0.4 μm pore (Costar, Cambridge, Mass.). Then, 2*10^5 cells by well were cultivated for 7 days, with media changes every 2-3 days. The dendrimer were added one hour prior to the infection. […] The viral concentration was quantified by ELISA.
To reproduce in the best possible way the role that the anionic dendrimer develop on the surface of the endometrium and to study the passage of virions through the mucosal stratified vaginal epithelium, we used transwell devices that recreate the phenomenon of transcytosis (transport of macromolecules from the extracellular space to another through the cytoplasm of a cell via an endocytic vesicle) due to the possibility of forming a perfect monolayer of adherent cells on the inside and collect information from the supernatants of the apical and basolateral side of the monolayer. […]

[4] = system: X4 HIV NL4.3 and R5 HIV Bal; test: CDi, CDm and macrophages pre-treatment; format: cell-based, HIV-1; settings: pretreated 1 h, 50 ng virus
Method: Once the cells were differentiated, they were washed twice with PBS and 2*10^5 CDi, 2*10^5 CDm and 10^5 macrophages were dispensed in 200 μL of complete medium in bottom p96 wells. The dendrimer were added one hour prior to the infection. After adding the viral particles (50 ng), they were incubated in culture conditions and after 3 hours the supernatant was retired and washed 4 times with PBS. The supernatant was collected after 4 days. The viral concentration was quantified by ELISA.

PBMC [5] = test: LDH assay in PBMC; format: cell-based, human
Excerpt: This technique (CytoTox 96® Non-Radioactive Cytotoxicity Assay) was used to test the damage in the cell membrane surface due to the presence of anionic peripheral groups of dendrimers. The lactate dehydrogenase (LDH) is an enzyme that is released into the […] due to cell lysis. The LDH assay, therefore, is a measure of membrane integrity, which is based on the […] and reduction of tetrazolium salts to formazan crystals by […].
1*10^5 cells/well were dispensed in 96-well plate round bottom in a volume of 100 μL of complete medium and the dendrimer was added in a volume of 100 μL, to obtain a final volume of 200 μL in the well. Controls: 1. 200 μL of complete medium without cells (background control), 2. 100 μL of cells+100 μL of complete medium, 3. 100 μL of cells+100 μL of Triton X-100 0.2% 4. 100 μL of cells+100 μL with the dendrimer to the desired concentration. Incubated in culture conditions during the first 24 h. Plate was centrifuged at 1500 rpm 10 minutes and removed 100 μL of supernatant, being careful not to take the cells. 100 μL of reaction mixture prepared at the time on the 100 μL was added of supernatant and incubated at room temperature for 30 minutes in darkness. Finally, measured at 490 nm and 690 nm reference. The cytotoxicity was obtained from the following formula: Cytotoxicity (%)=(4−2)/(3−2)*100

PBMC [6] = test: MTT assay in PBMC; format: cell-based, human; settings: 10 μM
Method: as §1

[7] = system: HIV-1 NL4.3 (X4 tropic) and HIV-1 BaL (R5 tropic); test: Action mechanism: virus treated with dendrimer before exposure to PBMC; format: cell-based; settings: 10 μM, 4 days of culture
Method: It was used for this experiment a 96 well plate of flat bottom with Poli-L-lysine (PLL, Sigma® covering the bottom of the well. For this purpose, 50 uL of PLL were incubated at 37° C. for one hour. After washing the wells three times with PBS, 4 ng of HIV were incubated overnight at 4° C., to ensure that the virus particles were adhered to the bottom of the well. Each well was washed three times with PBS to remove HIV not adhered to the plate and then each well was treated with different dendrimer concentrations for 1 h. Afterward, it was necessary to washed the product with PBS and PBMC previously stimulated were added. The supernatant of this cell culture was recovered after 4 days and p24 antigen was quantified by ELISA to assess the amount of HIV produced by the PBMC in different treatments. As positive control of lysis of the viral particles Triton x-100 (1%) was used.
After verifying the effectiveness of the dendrimer to block adherence and internalization of virus particles, we proceeded to try to understand the mechanism of action. To this end, we designed an experiment that consisted of exposing the viral particles to the presence of dendrimer, to then use this combination in stimulated PBMC cultures (prepared for the viral infection). […]

HIV-1 NL4.3 = test: PBMC pre-treatment / post-treatment infection inhibition; format: cell-based
Method: We used 2*10^5 stimulated PBMC cells dispensed in 200 μL of complete medium in round bottom wells of p96 plate. […] After this time, the wells were washed twice with PBS and were incubated in culture conditions. The viral concentration after 3 days was quantified by ELISA of p24.

[8] = system: TNF-alpha transcriptional activity (pTNF-luc); test: Transfection of Jurkat cells with pTNF-luc plasmid; format: cell-based; settings: 5 and 10 micromolar, 16 hours, versus control cells without stimulating
Method: Inflammation experiments: the experiments were conducted with transient transfection using plasmid indicators pTNF-luc and pNF-κB-luc containing 3 copies in tandem of site NF-κB of the promoter. The Jurkat cell line was nucleofected with the AMAXA nucleofector following the commercial house protocol “cell line nucleofector kit V” and the specific programme used in the X-005. Transfected cells were stimulated for 16 hours with the different stimuli that appear in the graphs (TNF-alpha, antibody monoclonal anti-TNF-alpha and different concentrations (5 and 10 micromolar) of the anionic sulfonate dendrimer). After different treatments, the transfected cells were collected by centrifugation and lysed with commercial tampon lysis “Dual-luciferase Assay System Kit” (Promega), according to the manufacturer's recommendations. The amount of protein in 5 μl of lysed cell was measured by the method of BSA-BCA (Pierce, Rockford, USA). Once quantified, the values of all the samples were normalized to 20 micrograms to measure the luciferase activity for about 10 seconds in a luminometer 1450 Microbeta Luminiscence Counter (Walax, Trilux). Luciferasa activity of firefly values are expressed as induction with respect to cells control. […]

NF-kB (pNF-kB-luc) = test: Transfection of Jurkat cells with pNF-kB-luc plasmid; format: cell-based
Method: Inflammation experiments: the experiments were conducted with transient transfection using plasmid indicators pTNF-luc and pNF-κB-luc containing 3 copies in tandem of site NF-κB of the promoter. The Jurkat cell line was nucleofected with the AMAXA nucleofector following the commercial house protocol “cell line nucleofector kit V” and the specific programme used in the X-005. Transfected cells were stimulated for 16 hours with the different stimuli that appear in the graphs (TNF-alpha, antibody monoclonal anti-TNF-alpha and different concentrations (5 and 10 micromolar) of the anionic sulfonate dendrimer). […] The amount of protein in 5 μl of lysed cell was measured by the method of BSA-BCA (Pierce, Rockford, USA). Once quantified, the values of all the samples were normalized to 20 micrograms to measure the luciferase activity for about 10 seconds in a luminometer 1450 Microbeta Luminiscence Counter (Walax, Trilux). Luciferasa activity of firefly values are expressed as induction with respect to cells control.
Jurkat cells were transfected with the pNF-kB-luc plasmid, they were cultivated in the presence of sulfonate (10 micromolar) for 16 hours and the luciferasa activity was measured. […] The results presented are expressed as standardized induction index with the values of cell controls without treatment control and it is a representative of three independent experiments.

PBMC [9] = test: Lymphoproliferative assay (BrdU incorporation); design: Mitogenic effect of dendrimer alone (BrdU incorporation): dose or concentration left out as unconfirmed

“ck-G1-[Si(CH2)4(N3C2H)CH2N(CH2PO(OMe)2)2]8 [G2CKP32]” was tested, and the “Cell viability (MTT toxicity curve)” value [1] was “good cell viability”.

For `Cc1ccc(C(=O)Nc2ccc(S(=O)(=O)O)c3cc(S(=O)(=O)O)cc(S(=O)(=O)O)c23)cc1NC(=O)c1cccc(NC(=O)Nc2cccc(C(=O)Nc3cc(C(=O)Nc4ccc(S(=O)(=O)O)c5cc(S(=O)(=O)O)cc(S(=O)(=O)O)c45)ccc3C)c2)c1` [Suramin, reference compound], the LDH release ([2]; after an hour of contact) was “did not show toxicity”, the “Reduction of passage of viral particles through the monolayer” value ([3]; 70 ng Bal virus, 1 h pretreatment, basolateral supernatant after 48 h, FIG. 20) was “lacks the inhibitory effect” and the “Inhibitory effect on passage of viral particles through the monolayer” value ([3]; R5-tropic virus, positive control) was “no inhibitory effect”. For the same compound, the “Decrease of p24 antigen in immature dendritic cells” value (from here on “Decrease of p24 antigen”) [4] was “significant”.

With “ck-G1-[Si(CH2)4(N3C2H)CH2N(CH2CH2COONa)2]8 [G2CKCOO16]” the “Cell viability (MTT toxicity curve)” value [1] was “good cell viability”.

With mannan [reference compound] the “Decrease of p24 antigen” value [4] was “significant”.

With G1-[Si(CH2)3N(CH2CH2SO3Na)2]8 [G2SF16] the “Damage to the cell membrane (LDH)” value (PBMC [5]) was “low damage”, the “Concentration from which toxicity was presented (LDH)” value (PBMC [5]; 24 hours) was at least 10 µM and the “Mitochondrial activity (MTT)” value (PBMC [6]) was “optimal mitochondrial activity”. For the same compound, the “HIV (p24) in supernatant of PBMC after virus treated with dendrimer” value [7] was “low prevalence of HIV”, the “Reduction of passage of viral particles through the monolayer” value ([3]; 5 μM, both X4 and R5 virus, basolateral supernatant at 24 and 48 hours) was 40% and the “Inhibition of infection, post-treatment” value (HIV-1 NL4.3; PBMC infected first, then dendrimer) was 60%. For the same compound, the “Inhibition of infection, pre-treatment” value (HIV-1 NL4.3; PBMC treated with dendrimer prior to infection by HIV-1 NL4.3) was 80%, the “Decrease of p24 antigen” value [4] was “significant” and the “p24 in the supernatant of macrophages” value [4] was “clear decrease of p24”. For the same compound, the “Promoter activity of the pTNF-luc plasmid” value [8] was “two to three times lower”, the “Activity of the pNF-kB-luc plasmid” value (NF-kB (pNF-kB-luc); 10 micromolar, 16 hours) was “decrease in the activity of the pNF-kB-luc plasmid; also recorded: decreases the transcriptional activity of NF-kappa” and the “Induction of NF-kB-luc by TNF-alpha” value (NF-kB (pNF-kB-luc); sulfonate + TNF-alpha) was “reversal of the induction of NF-kB-luc”. For the same compound, the “Effect on mitogenic effect of PHA, treatment at the same time as PHA” value (PBMC [9]; PBMC, 4 days) was “slightly decreases the mitogenic effect”, the “Mitogenic effect of dendrimer alone (BrdU incorporation)” value (PBMC [9]; PBMC, 4 days) was “no mitogenic effect” and the “BrdU incorporation in PBMC previously stimulated with PHA” value (PBMC [9]; PHA for 3 days, then 4 days of treatment, FIG. 4B) was “decrease in BrdU incorporation; also recorded: inhibits the mitogenic effect of PHA”.

With dextran the “LDH in the supernatant with regard to the control” value ([2]; 24 hours of treatment) was about 10%.
